Holding throughout (assay type): cell-based
The target in one assay is T1, human TLR7 (Homo sapiens, UniProt Q9NYK1).
T1 construct: host or cells: HEK-Blue cells (HEK293-derived reporter line)
T1 sequence (Q9NYK1 27-1049): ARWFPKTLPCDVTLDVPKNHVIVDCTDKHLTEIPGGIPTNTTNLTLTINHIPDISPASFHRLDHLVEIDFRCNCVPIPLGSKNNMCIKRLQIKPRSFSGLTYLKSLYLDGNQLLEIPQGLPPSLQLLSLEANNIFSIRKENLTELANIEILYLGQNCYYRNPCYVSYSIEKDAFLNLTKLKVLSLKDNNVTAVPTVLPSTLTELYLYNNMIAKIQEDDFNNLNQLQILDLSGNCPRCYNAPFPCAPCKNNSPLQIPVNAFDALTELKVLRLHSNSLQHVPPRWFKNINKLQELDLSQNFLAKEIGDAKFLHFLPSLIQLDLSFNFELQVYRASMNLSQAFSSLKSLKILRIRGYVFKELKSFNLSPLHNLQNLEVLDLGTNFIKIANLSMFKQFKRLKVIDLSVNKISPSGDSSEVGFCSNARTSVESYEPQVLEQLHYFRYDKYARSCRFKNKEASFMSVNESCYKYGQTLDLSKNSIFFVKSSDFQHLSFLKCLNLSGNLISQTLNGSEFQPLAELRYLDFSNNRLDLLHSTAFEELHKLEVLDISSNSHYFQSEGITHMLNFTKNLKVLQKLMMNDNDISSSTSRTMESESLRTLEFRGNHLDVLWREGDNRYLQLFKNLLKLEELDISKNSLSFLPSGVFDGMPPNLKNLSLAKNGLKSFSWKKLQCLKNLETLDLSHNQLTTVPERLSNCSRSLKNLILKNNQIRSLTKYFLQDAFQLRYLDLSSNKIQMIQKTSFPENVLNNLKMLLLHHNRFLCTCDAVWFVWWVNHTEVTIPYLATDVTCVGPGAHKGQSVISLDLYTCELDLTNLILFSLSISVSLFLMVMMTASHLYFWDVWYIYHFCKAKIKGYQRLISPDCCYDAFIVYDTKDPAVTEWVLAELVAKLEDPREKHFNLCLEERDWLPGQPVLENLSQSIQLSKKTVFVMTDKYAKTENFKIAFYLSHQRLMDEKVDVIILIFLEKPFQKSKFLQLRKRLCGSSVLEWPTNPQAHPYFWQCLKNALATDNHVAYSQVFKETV
Kind of assay: TLR7 inhibition reporter assay (HEK-Blue cells, secreted embryonic alkaline phosphatase reporter). To be noted: HEK-Blue cells overexpressing human TLR7, stimulated with gardiquimod 7.5 μM; read-out: TLR 7 IC50. A digest of the protocol: (§1)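 Cells seeded at 15000 (TLR7), 20,000 (TLR8) or 25,000 (TLR9) per well; compound 0.05 nM–50 μM, 30 min RT pre-incubation. Agonists: gardiquimod 7.5 μM, R848 15.9 μM, ODN2006 5 nM respectively. 22 h, 37 °C; SEAP via HEK-Blue Detection; % inhibition vs agonist+DMSO and known-inhibitor wells.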
For orientation: In a reporter assay the amount or activity of a reporter protein is the signal.

Another assay addresses T2, human TLR8 (Homo sapiens, UniProt Q9NR97).
T2 construct: host or cells: HEK-Blue cells (HEK293-derived reporter line)
T2 sequence (Q9NR97 27-1041): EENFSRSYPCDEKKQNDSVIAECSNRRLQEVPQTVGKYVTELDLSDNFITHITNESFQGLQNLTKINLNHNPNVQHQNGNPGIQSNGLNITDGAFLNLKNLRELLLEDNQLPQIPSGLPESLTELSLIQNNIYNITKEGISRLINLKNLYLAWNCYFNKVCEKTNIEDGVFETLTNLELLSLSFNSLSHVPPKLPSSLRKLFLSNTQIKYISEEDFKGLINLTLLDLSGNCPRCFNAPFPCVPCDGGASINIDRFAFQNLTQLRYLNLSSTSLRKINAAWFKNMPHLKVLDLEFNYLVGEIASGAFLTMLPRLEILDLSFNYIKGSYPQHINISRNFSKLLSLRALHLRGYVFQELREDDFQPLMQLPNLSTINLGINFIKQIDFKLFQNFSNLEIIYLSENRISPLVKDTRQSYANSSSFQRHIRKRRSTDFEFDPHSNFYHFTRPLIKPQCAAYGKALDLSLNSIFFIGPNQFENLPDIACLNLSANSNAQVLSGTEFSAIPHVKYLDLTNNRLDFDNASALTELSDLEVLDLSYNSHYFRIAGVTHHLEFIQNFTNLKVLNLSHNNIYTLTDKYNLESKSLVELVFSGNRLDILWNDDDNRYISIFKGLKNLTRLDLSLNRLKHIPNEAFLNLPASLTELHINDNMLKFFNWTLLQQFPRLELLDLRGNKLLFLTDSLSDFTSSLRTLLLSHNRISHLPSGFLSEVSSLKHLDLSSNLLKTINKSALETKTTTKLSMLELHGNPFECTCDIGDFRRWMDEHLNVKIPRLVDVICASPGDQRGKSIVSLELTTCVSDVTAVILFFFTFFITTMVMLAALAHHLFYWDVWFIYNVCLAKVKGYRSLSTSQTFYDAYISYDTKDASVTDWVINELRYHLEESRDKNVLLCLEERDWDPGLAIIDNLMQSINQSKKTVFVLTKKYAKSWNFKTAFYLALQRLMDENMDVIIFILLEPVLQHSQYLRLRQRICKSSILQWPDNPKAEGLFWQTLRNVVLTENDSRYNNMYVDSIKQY
Kind of assay: TLR8 inhibition reporter assay (HEK-Blue cells, secreted embryonic alkaline phosphatase reporter). To be noted: HEK-Blue cells overexpressing human TLR8, stimulated with R848 15.9 μM; read-out: TLR 8 IC50. A digest of the protocol: as §1

The target of another assay is T3, human TLR9 (Homo sapiens, UniProt Q9NR96).
T3 construct: host or cells: HEK-Blue cells (HEK293-derived reporter line)
T3 sequence (Q9NR96 26-1032): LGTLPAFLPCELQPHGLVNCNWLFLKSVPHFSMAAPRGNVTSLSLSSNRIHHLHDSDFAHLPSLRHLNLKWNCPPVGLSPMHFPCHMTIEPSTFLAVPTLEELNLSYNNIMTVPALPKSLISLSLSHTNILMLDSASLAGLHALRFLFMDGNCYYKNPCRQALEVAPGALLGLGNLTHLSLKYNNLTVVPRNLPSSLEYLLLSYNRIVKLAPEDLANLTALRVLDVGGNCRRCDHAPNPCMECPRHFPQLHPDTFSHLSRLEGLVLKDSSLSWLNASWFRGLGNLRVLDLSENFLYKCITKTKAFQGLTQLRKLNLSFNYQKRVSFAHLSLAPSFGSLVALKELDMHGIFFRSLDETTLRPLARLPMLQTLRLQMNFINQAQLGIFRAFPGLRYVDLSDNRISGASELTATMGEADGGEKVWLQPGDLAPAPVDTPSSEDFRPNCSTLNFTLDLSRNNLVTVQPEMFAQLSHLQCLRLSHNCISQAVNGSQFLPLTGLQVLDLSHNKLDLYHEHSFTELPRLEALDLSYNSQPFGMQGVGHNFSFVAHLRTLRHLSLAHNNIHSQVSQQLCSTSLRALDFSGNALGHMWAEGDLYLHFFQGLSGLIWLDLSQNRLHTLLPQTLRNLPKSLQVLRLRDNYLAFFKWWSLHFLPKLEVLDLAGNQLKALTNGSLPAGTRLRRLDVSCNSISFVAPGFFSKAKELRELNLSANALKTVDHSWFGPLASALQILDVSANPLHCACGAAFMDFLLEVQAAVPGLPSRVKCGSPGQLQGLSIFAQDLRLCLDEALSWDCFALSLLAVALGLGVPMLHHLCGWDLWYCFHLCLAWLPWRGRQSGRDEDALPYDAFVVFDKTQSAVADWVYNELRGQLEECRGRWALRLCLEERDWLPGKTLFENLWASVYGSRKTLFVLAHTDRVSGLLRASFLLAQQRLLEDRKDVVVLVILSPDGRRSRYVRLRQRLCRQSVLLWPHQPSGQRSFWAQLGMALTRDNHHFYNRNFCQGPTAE
Kind of assay: TLR9 inhibition reporter assay (HEK-Blue cells, secreted embryonic alkaline phosphatase reporter). A digest of the protocol:
as §1

Setting [1] is: HEK-Blue cells overexpressing human TLR9, stimulated with ODN2006 5 nM, read-out: TLR 9 IC50.
Where [2] appears, read: HEK-Blue cells overexpressing human TLR9, stimulated with ODN2006 5 nM, 22 hour incubation, reporter readout.

Like-named read-outs stand apart in the source and are kept apart here.

As to `CS(=O)(=O)c1ccc(-c2nc3ccc(C4CCN(C5CCN(CC6CC6)CC5)CC4)c(F)c3[nH]2)cc1` [Example 179, 6-(1′-(cyclopropylmethyl)-[1,4′-bipiperidin]-4-yl)-7-fluoro-2-(4-(methylsulfonyl)phenyl)-1H-benzo[d]imidazole], the IC50 – broadly, the midpoint of a concentration-inhibition curve – on human TLR7 was over 50000 nM; at human TLR8, over 50000 nM; at human TLR9 it was 180 nM; on human TLR9 (setting [1]) it was 184 nM.

Turning to `COc1ccc(-c2nc3ccc(C4CCN(C5CCN(C6CC6)CC5)CC4)cc3n2C)cc1OC` [Example 27, 6-(1′-cyclopropyl-[1,4′-bipiperidin]-4-yl)-2-(3,4-dimethoxyphenyl)-1-methyl-1H-benzo[d]imidazole], the IC50 at human TLR7 was 2400 nM; at human TLR8, over 50000 nM; at human TLR9 (setting [2]), 110 nM; on human TLR9 (setting [1]), 106 nM.

With `Cc1cc(C2CCN(C3CCCN(C4CCC4)CC3)CC2)cc2c1nc(-c1ccc(S(C)(=O)=O)cc1)n2C` (single isomer, unassigned) [Example 110, 6-(1-(1-cyclobutylazepan-4-yl)piperidin-4-yl)-1,4-dimethyl-2-(4-(methylsulfonyl)phenyl)-1H-benzo[d]imidazole], the 50% inhibitory concentration (IC50) on human TLR7 was 1200 nM; at human TLR8, over 50000 nM; against human TLR9 (setting [2]) it was 83 nM.

As to `Cn1c(-c2ccc(S(C)(=O)=O)cc2)nc2cc(F)c(C3CCN(C4CCN(C5CCC5)CC4)CC3)cc21` [Example 223, 6-(1′-cyclobutyl-[1,4′-bipiperidin]-4-yl)-5-fluoro-1-methyl-2-(4-(methylsulfonyl)phenyl)-1H-benzo[d]imidazole], the 50% inhibitory concentration (IC50) on human TLR7 is over 50000 nM; on human TLR8, over 50000 nM; on human TLR9, 290 nM; at human TLR9 (setting [1]) it was 290 nM.

Consider `Cn1c(-c2ccc(S(C)(=O)=O)cc2)nc2cc(F)c(C3CCN(C4CC5CCC(C4)N5C4COC4)CC3)cc21` (single isomer, unassigned) [Example 234, 5-fluoro-1-methyl-2-(4-(methylsulfonyl)phenyl)-6-(1-(8-(oxetan-3-yl)-8-azabicyclo[3.2.1]octan-3-yl)piperidin-4-yl)-1H-benzo[d]imidazole], for which the IC50 on human TLR7 is over 50000 nM; on human TLR8, over 50000 nM; against human TLR9 it was 150 nM; at human TLR9 (setting [1]) it was 152 nM.

With `Cc1cc(C2CCN(C3CCN(C(C)C)CC3)CC2)cc2c1nc(-c1ccc(S(C)(=O)=O)c(F)c1)n2C` [Example 122, 2-(3-fluoro-4-(methylsulfonyl)phenyl)-6-(1′-isopropyl-[1,4′-bipiperidin]-4-yl)-1,4-dimethyl-1H-benzo[d]imidazole], the IC50 was 8900 nM at human TLR7, over 25000 nM at human TLR8, 140 nM against human TLR9 (setting [2]) and 139 nM at human TLR9 (setting [1]).

For `Cc1cc(C2CCN(C3CCN(C4CC4)CC3)CC2)cc2c1nc(-c1ccc(S(C)(=O)=O)c(F)c1)n2C` [Example 339, 6-(1′-cyclopropyl-[1,4′-bipiperidin]-4-yl)-2-(3-fluoro-4-(methylsulfonyl)phenyl)-1,4-dimethyl-1H-benzo[d]imidazole], the 50% inhibitory concentration (IC50) at human TLR7 was 12700 nM; at human TLR8, over 25000 nM; at human TLR9 (setting [1]), 343 nM; against human TLR9 (HEK-Blue human TLR9 reporter cells) it was 340 nM.

`COc1ccc(-c2nc3ccc(C4CCN(C5CCN(C(C)C)CC5)CC4)cc3n2C(C)C)cc1OC` [Example 3, 2-(3,4-dimethoxyphenyl)-1-isopropyl-6-(1′-isopropyl-[1,4′-bipiperidin]-4-yl)-1H-benzo[d]imidazole]: the IC50 is 280 nM on human TLR7, over 50000 nM at human TLR8, 170 nM at human TLR9 (setting [2]) and 169 nM on human TLR9 (setting [1]).

As to `Cc1cc(C2CCN(C3CCN(C(C)C)CC3)CC2)cc2c1nc(-c1ccc(S(C)(=O)=O)cc1)n2C` [Example 22, 6-(1′-isopropyl-[1,4′-bipiperidin]-4-yl)-1,4-dimethyl-2-(4-(methylsulfonyl)phenyl)-1H-benzo[d]imidazole], the IC50 at human TLR7 is 24000 nM; at human TLR8, over 50000 nM; against human TLR9 (setting [2]) it was 7.6 nM.

For `COc1ccc(-c2nc3cc(C4CCN(C5CCN(C(C)C)CC5)CC4)ccc3n2C)cc1OC` [Example 5, 2-(3,4-dimethoxyphenyl)-5-(1′-isopropyl-[1,4′-bipiperidin]-4-yl)-1-methyl-1H-benzo[d]imidazole], the figures for the IC50 on human TLR7, on human TLR8 and at human TLR9 (setting [2]) were 6800 nM, 840 nM and 250 nM, respectively.

For the molecule `CN(C)C1CCN(Cc2ccc(-c3ccc4nc(-c5ccc(F)cc5)n(C)c4c3)cc2)CC1` [Example 378, 1-(4-(2-(4-fluorophenyl)-1-methyl-1H-benzo[d]imidazol-6-yl)benzyl)-N,N-dimethylpiperidin-4-amine], the half-maximal inhibitory concentration (IC50) at human TLR7 stood at 2200 nM; on human TLR8, 17100 nM; against human TLR9 (setting [2]), 350 nM; on human TLR9 (setting [1]) it was 349 nM.
